Paper PMC9516332 (Frontiers in Oncology, 2022)

How the values were obtained:
Experiment in all cases: Kinase panel profiling at 1 µmol/L (MSA or IMAP), percentage inhibition
Format in all cases: biochemical
[1] = biological target: T1, panel of 255 wild-type kinases (Homo sapiens, UniProt O15530); details: kinase PDK1; 1 µmol/L single concentration; read-out: %-inhibition at 1 µmol/L, PDK1
T1 sequence (O15530 1-556): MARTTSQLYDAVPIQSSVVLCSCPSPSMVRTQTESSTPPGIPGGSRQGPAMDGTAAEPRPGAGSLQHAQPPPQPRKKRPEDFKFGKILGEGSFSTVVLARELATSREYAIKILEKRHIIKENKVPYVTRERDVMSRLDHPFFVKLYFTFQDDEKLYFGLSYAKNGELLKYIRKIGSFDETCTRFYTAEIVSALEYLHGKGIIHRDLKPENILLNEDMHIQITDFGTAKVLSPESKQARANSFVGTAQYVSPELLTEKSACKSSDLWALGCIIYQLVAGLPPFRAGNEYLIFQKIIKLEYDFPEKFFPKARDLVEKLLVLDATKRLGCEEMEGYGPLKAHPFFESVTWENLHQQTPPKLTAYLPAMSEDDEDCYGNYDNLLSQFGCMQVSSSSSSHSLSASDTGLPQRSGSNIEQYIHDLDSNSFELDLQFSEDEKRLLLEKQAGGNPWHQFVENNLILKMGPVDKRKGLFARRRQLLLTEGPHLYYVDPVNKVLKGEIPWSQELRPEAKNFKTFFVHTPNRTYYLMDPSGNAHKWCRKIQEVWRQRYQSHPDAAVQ

[2] = biological target: panel of 255 wild-type kinases (Homo sapiens, UniProt P06493); details: CDC2/CycB1 kinase assay; 1 µmol/L single concentration; read-out: %-inhibition CDC2/CycB1
[3] = biological target: panel of 255 wild-type kinases (Homo sapiens, UniProt P07947); details: kinase YES; 1 µmol/L single concentration; read-out: %-inhibition at 1 µmol/L, YES
[4] = biological target: panel of 255 wild-type kinases (Homo sapiens, UniProt P10721); details: kinase KIT; 1 µmol/L single concentration; read-out: %-inhibition at 1 µmol/L, KIT
[5] = biological target: panel of 255 wild-type kinases (Homo sapiens, UniProt Q04759); details: kinase PKCθ; 1 µmol/L single concentration; read-out: %-inhibition at 1 µmol/L, PKCθ
[6] = biological target: panel of 255 wild-type kinases (Homo sapiens, UniProt Q04912); details: kinase RON; 1 µmol/L single concentration; read-out: %-inhibition at 1 µmol/L, RON
[7] = biological target: panel of 255 wild-type kinases (Homo sapiens, UniProt Q86V86); details: kinase PIM3; 1 µmol/L single concentration; read-out: %-inhibition at 1 µmol/L, PIM3
[8] = biological target: panel of 255 wild-type kinases (Homo sapiens, UniProt Q9H2G2); details: kinase SLK; 1 µmol/L single concentration; read-out: %-inhibition at 1 µmol/L, SLK
[9] = biological target: T2, panel of 255 wild-type kinases (Homo sapiens, UniProt Q9NWZ3); details: kinase IRAK4; 1 µmol/L single concentration; read-out: %-inhibition at 1 µmol/L, IRAK4
T2 sequence (Q9NWZ3 1-460): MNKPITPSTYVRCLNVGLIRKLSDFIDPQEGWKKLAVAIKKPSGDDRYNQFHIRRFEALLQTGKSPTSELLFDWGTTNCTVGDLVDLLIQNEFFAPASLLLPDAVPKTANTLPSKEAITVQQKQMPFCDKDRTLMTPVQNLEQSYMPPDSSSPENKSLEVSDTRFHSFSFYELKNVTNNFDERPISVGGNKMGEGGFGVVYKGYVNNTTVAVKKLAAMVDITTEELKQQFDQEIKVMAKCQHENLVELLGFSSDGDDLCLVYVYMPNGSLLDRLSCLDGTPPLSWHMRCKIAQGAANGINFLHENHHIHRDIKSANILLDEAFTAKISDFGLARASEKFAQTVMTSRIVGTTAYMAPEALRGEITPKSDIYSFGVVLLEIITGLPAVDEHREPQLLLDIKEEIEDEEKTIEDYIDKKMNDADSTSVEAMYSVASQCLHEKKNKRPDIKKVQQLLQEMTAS

[10] = biological target: panel of 255 wild-type kinases (Homo sapiens, UniProt Q9UM73); details: ALK kinase assay; 1 µmol/L single concentration; read-out: %-inhibition ALK
[11] = biological target: panel of 255 wild-type kinases (Homo sapiens, UniProt Q9Y3S1); details: kinase WNK2; 1 µmol/L single concentration; read-out: %-inhibition at 1 µmol/L, WNK2
[12] = biological target: panel of 255 wild-type kinases (Homo sapiens, UniProt Q9Y463); details: kinase DYRK1B; 1 µmol/L single concentration; read-out: %-inhibition at 1 µmol/L, DYRK1B
[13] = biological target: panel of 255 wild-type kinases (Homo sapiens, UniProt Q9Y5S2); details: MRCKβ; 1 µmol/L single concentration; read-out: %-inhibition, MRCKβ

CO[C@]1(C(=O)N[C@@H](C)c2ccc(-n3cc(F)cn3)nc2)CC[C@H](c2nc(C)cc(Nc3cc(C)[nH]n3)n2)CC1 [pralsetinib]
inhibition at 1 µM [1]: 9% | inhibition at 1 µM [2]: 15% | inhibition at 1 µM [3]: 95% | inhibition at 1 µM [4]: 83% | inhibition at 1 µM [5]: -0.598% | inhibition at 1 µM [6]: 2.6% | inhibition at 1 µM [7]: -0.165% | inhibition at 1 µM [8]: 17% | inhibition at 1 µM [9]: -0.786% | inhibition at 1 µM [10]: 35% | inhibition at 1 µM [11]: -1% | inhibition at 1 µM [12]: -12% | inhibition at 1 µM [13]: 1.9%

COc1cc2ncnc(Nc3ccc(F)c(Cl)c3)c2cc1NC(=O)/C=C/CN1CCCCC1 [dacomitinib]
inhibition at 1 µM [1]: -7% | inhibition at 1 µM [2]: -6% | inhibition at 1 µM [4]: -10% | inhibition at 1 µM [5]: 1.57% | inhibition at 1 µM [6]: 5% | inhibition at 1 µM [7]: 23% | inhibition at 1 µM [8]: 78% | inhibition at 1 µM [9]: 19% | inhibition at 1 µM [10]: 17% | inhibition at 1 µM [11]: -4% | inhibition at 1 µM [12]: 7% | inhibition at 1 µM [13]: 8%

CCn1c(=O)c(-c2cc(NC(=O)Nc3ccccc3)c(F)cc2Br)cc2cnc(NC)cc21 [ripretinib]
inhibition at 1 µM [1]: -7% | inhibition at 1 µM [2]: -5.56% | inhibition at 1 µM [3]: 81% | inhibition at 1 µM [5]: -3% | inhibition at 1 µM [6]: 1.39% | inhibition at 1 µM [7]: 1.11% | inhibition at 1 µM [8]: 18% | inhibition at 1 µM [9]: -3.46% | inhibition at 1 µM [10]: 2.68% | inhibition at 1 µM [11]: -1.64% | inhibition at 1 µM [12]: -2.38% | inhibition at 1 µM [13]: -1.41%

Cc1nc(NC(=O)N2CCC[C@H]2C(N)=O)sc1-c1ccnc(C(C)(C)C(F)(F)F)c1 [alpelisib]
inhibition at 1 µM [1]: -0.422% | inhibition at 1 µM [2]: -3.48% | inhibition at 1 µM [3]: -4% | inhibition at 1 µM [4]: 5% | inhibition at 1 µM [5]: -0.212% | inhibition at 1 µM [6]: 7% | inhibition at 1 µM [7]: -13% | inhibition at 1 µM [8]: 8% | inhibition at 1 µM [9]: -3.77% | inhibition at 1 µM [10]: 1.84% | inhibition at 1 µM [11]: -3.36% | inhibition at 1 µM [12]: 8% | inhibition at 1 µM [13]: -7%

C=CC(=O)N1CCC([C@@H]2CCNc3c(C(N)=O)c(-c4ccc(Oc5ccccc5)cc4)nn32)CC1 [zanubrutinib]
inhibition at 1 µM [1]: 0.547% | inhibition at 1 µM [2]: -7% | inhibition at 1 µM [4]: -4.47% | inhibition at 1 µM [5]: -3% | inhibition at 1 µM [6]: 5% | inhibition at 1 µM [7]: -8% | inhibition at 1 µM [8]: 2.36% | inhibition at 1 µM [9]: 1% | inhibition at 1 µM [10]: 2.23% | inhibition at 1 µM [11]: 2% | inhibition at 1 µM [12]: 5.39% | inhibition at 1 µM [13]: -1.23%

O=C(Nc1cnn2ccc(N3CCC[C@@H]3c3cc(F)ccc3F)nc12)N1CC[C@H](O)C1 [larotrectinib]
inhibition at 1 µM [1]: 2.15% | inhibition at 1 µM [2]: -7% | inhibition at 1 µM [3]: -2.66% | inhibition at 1 µM [4]: -5% | inhibition at 1 µM [5]: -2.77% | inhibition at 1 µM [6]: 2.82% | inhibition at 1 µM [7]: -5.31% | inhibition at 1 µM [8]: 5.58% | inhibition at 1 µM [9]: 1.67% | inhibition at 1 µM [10]: 7% | inhibition at 1 µM [11]: -2% | inhibition at 1 µM [12]: 6% | inhibition at 1 µM [13]: -2.21%

Cc1cc(Nc2ncnc3ccc(NC4=NC(C)(C)CO4)cc23)ccc1Oc1ccn2ncnc2c1 [tucatinib]
inhibition at 1 µM [1]: 3% | inhibition at 1 µM [2]: -7% | inhibition at 1 µM [3]: 3.64% | inhibition at 1 µM [4]: -1.27% | inhibition at 1 µM [5]: 0.763% | inhibition at 1 µM [6]: 2.23% | inhibition at 1 µM [7]: -1.3% | inhibition at 1 µM [8]: 11% | inhibition at 1 µM [9]: 0.835% | inhibition at 1 µM [10]: 32% | inhibition at 1 µM [11]: 0.536% | inhibition at 1 µM [12]: -1.89% | inhibition at 1 µM [13]: 2%

FC(F)(F)c1ccc(CNc2ccc(Cc3c[nH]c4ncc(Cl)cc34)cn2)cn1 [pexidartinib]
inhibition at 1 µM [1]: -4.67% | inhibition at 1 µM [2]: 32% | inhibition at 1 µM [3]: 16% | inhibition at 1 µM [4]: 87% | inhibition at 1 µM [5]: 3.27% | inhibition at 1 µM [6]: 23% | inhibition at 1 µM [7]: 4.68% | inhibition at 1 µM [8]: 11% | inhibition at 1 µM [9]: 37% | inhibition at 1 µM [10]: 11% | inhibition at 1 µM [11]: -1.8% | inhibition at 1 µM [12]: 4.37% | inhibition at 1 µM [13]: 2.43%

Cn1cnc2c(F)c(Nc3ccc(Br)cc3F)c(C(=O)NOCCO)cc21 [binimetinib]
inhibition at 1 µM [1]: 0.386% | inhibition at 1 µM [2]: 2.36% | inhibition at 1 µM [3]: 2.16% | inhibition at 1 µM [4]: -0.242% | inhibition at 1 µM [5]: -2.27% | inhibition at 1 µM [6]: -3.72% | inhibition at 1 µM [7]: 5% | inhibition at 1 µM [8]: 3.27% | inhibition at 1 µM [9]: 1.26% | inhibition at 1 µM [10]: 6.37% | inhibition at 1 µM [11]: -2.48% | inhibition at 1 µM [12]: -7% | inhibition at 1 µM [13]: 1.58%

CN1CCN(c2ccc(C(=O)Nc3n[nH]c4ccc(Cc5cc(F)cc(F)c5)cc34)c(NC3CCOCC3)c2)CC1 [entrectinib]
inhibition at 1 µM [1]: 0.207% | inhibition at 1 µM [2]: 3.63% | inhibition at 1 µM [3]: 98% | inhibition at 1 µM [4]: 21% | inhibition at 1 µM [5]: 10% | inhibition at 1 µM [6]: 33% | inhibition at 1 µM [7]: -10% | inhibition at 1 µM [8]: 63% | inhibition at 1 µM [9]: 8% | inhibition at 1 µM [10]: 100% | inhibition at 1 µM [11]: 2.24% | inhibition at 1 µM [12]: 6% | inhibition at 1 µM [13]: -7%

C[C@H]1Oc2cc(cnc2N)-c2c(nn(C)c2C#N)CN(C)C(=O)c2ccc(F)cc21 [lorlatinib]
inhibition at 1 µM [1]: 0.602% | inhibition at 1 µM [2]: 3.16% | inhibition at 1 µM [3]: 28% | inhibition at 1 µM [4]: 4.22% | inhibition at 1 µM [5]: 3% | inhibition at 1 µM [6]: 11% | inhibition at 1 µM [7]: -6% | inhibition at 1 µM [8]: 90% | inhibition at 1 µM [9]: -1.47% | inhibition at 1 µM [11]: -0.739% | inhibition at 1 µM [12]: -2.8% | inhibition at 1 µM [13]: 2.78%

CCN1CCN(c2ccc(Nc3cc(N(C)C(=O)Nc4c(Cl)c(OC)cc(OC)c4Cl)ncn3)cc2)CC1 [infigratinib]
inhibition at 1 µM [1]: 1.36% | inhibition at 1 µM [2]: -9% | inhibition at 1 µM [3]: 77% | inhibition at 1 µM [5]: -3% | inhibition at 1 µM [6]: 0.707% | inhibition at 1 µM [7]: 0.254% | inhibition at 1 µM [8]: 16% | inhibition at 1 µM [9]: -1.22% | inhibition at 1 µM [10]: 43% | inhibition at 1 µM [11]: 1% | inhibition at 1 µM [12]: -2.3% | inhibition at 1 µM [13]: -0.837%

Cn1cnc2c(F)c(Nc3ccc(Br)cc3Cl)c(C(=O)NOCCO)cc21 [selumetinib]
inhibition at 1 µM [1]: 2.11% | inhibition at 1 µM [2]: -11% | inhibition at 1 µM [3]: 14% | inhibition at 1 µM [4]: -2.4% | inhibition at 1 µM [5]: -0.321% | inhibition at 1 µM [6]: -1.28% | inhibition at 1 µM [7]: -0.0221% | inhibition at 1 µM [8]: 8% | inhibition at 1 µM [9]: -1.34% | inhibition at 1 µM [11]: -4% | inhibition at 1 µM [12]: -3.17% | inhibition at 1 µM [13]: 0.656%
